The record followed here is PMC8322070, “A novel orally active HDAC6 inhibitor T-518 shows a therapeutic potential for Alzheimer’s disease and tauopathy in mice” (Scientific Reports, 2021).

The test system of series [1] is P301S tau Tg mice. Nature of the series: Novel object recognition test. Format: in vivo, mouse. The following applies: 1 and 3 mg/kg for 2 weeks. Here is the method: (§1) T-518, ACY-738, Ricolinostat, and Tubastatin A were synthesized in Takeda. For in vitro cellular experiments, the compounds were solubilized with DMSO and diluted in the culture medium at the indicated concentrations. For in vivo experiments, the compound was reconstituted in 0.5% methylcellulose and administered orally at the indicated doses. After administration, mouse hippocampus was isolated and homogenized in RIPA extraction buffer (50 mM Tris–HCl, 150 mM NaCl, 1% NP-40, 0.5% sodium deoxycholate, and 0.1% SDS, pH 8.0) supplemented with protease and phosphatase inhibitor cocktail (Thermo Fischer, Waltham, MA, USA). The homogenate was centrifuged at 10,000g for 15 min and the supernatant was taken as the RIPA-soluble fraction.
The effect of T-518 on behavioral function was examined using the novel object recognition test: The box and objects used were purchased from BrainScience Idea (Osaka, Japan). The 30 × 30 × 35 cm gray-colored test box was used. The two objects used were pyramidal, white-colored, and ceramic (object A and A′) and cylindrical, silver, and aluminum (object B). In the acquisition phase, the identical objects (objects A and A′) were symmetrically placed in the box. Each animal was placed in the box for 5 min followed by a 24-h retention interval in the home cage. […] Time spent exploring the objects were measured during both phases. […]

Series [2] has as its system HDAC1‒5, 7‒9, and 11. Nature of the series: HDAC selectivity panel (Reaction Biology Corporation). Format: biochemical. The settings on record: up to 10 μM; heat map Fig. 2A.
In series [3] the test system is P301S tau Tg mice. Nature of the series: Tau accumulation in hippocampus by RAB-RIPA-FA extraction and Western blotting. Format: in vivo, mouse. The settings on record: 3 mg/kg daily, from 6 to 9 months of age. Here is the method:
as §1
Cell lysate or in vivo protein samples were separated by 10% SDS-PAGE, then electrophoretically transferred to 0.45 μm poly-vinylidene difluoride membranes (Millipore). Membranes were blocked for 1 h in Blocking Reagent (TOYOBO, Osaka, Japan), probed with primary antibodies followed by labeling with HRP-coupled secondary antibodies (Amersham, Piscataway, NJ), and then visualized using chemiluminescence reagent (ECL; Amersham). Images were captured using ImageQuant LAS 4000 (GE healthcare Bio-Sciences, Marlborough, MA, USA). Quantitative densitometric analyses were conducted using ImageQuant TL (GE healthcare Bio-Sciences). […]
(Immunoblotting shows a protein as a band on a membrane.)

The subject of series [4] is Histone H3 acetylation in mouse primary neural cultures. Nature of the series: Histone H3 acetylation in mouse primary neural culture (Western blotting). The settings on record: DIV6 mouse primary neural culture, 3 and 30 μM, 24 h. Format: cell-based. The procedure:
as §1
(§2) Primary cortical neurons were prepared from E14 C57BL/6J mouse embryos (CLIEA Japan, Inc., Tokyo, Japan) using papain-containing Neuron Dissociation Solutions (Fujifilm Wako, Tokyo, Japan). Isolated cells were suspended in Neurobasal Medium containing B-27 (Thermo Fisher) and seeded on poly-D-lysine-coated plates (Corning, NY, USA) under 5% CO2 at 37 °C for 6 days in vitro (DIV) prior to evaluation of HDAC6 inhibitors. Cells were treated with HDAC6 inhibitors at the indicated concentrations for 24 h and lysed in RIPA extraction buffer (50 mM Tris–HCl, 150 mM NaCl, 1% NP-40, 0.5% sodium deoxycholate, and 0.1% SDS, pH 8.0) supplemented with protease and phosphatase inhibitor cocktail (Thermo Fisher).
Cell lysate or in vivo protein samples were separated by 10% SDS-PAGE, then electrophoretically transferred to 0.45 μm poly-vinylidene difluoride membranes (Millipore). Membranes were blocked for 1 h in Blocking Reagent (TOYOBO, Osaka, Japan), probed with primary antibodies followed by labeling with HRP-coupled secondary antibodies (Amersham, Piscataway, NJ), and then visualized using chemiluminescence reagent (ECL; Amersham). Images were captured using ImageQuant LAS 4000 (GE healthcare Bio-Sciences, Marlborough, MA, USA). Quantitative densitometric analyses were conducted using ImageQuant TL (GE healthcare Bio-Sciences). The protocol was slightly modified for detection of HDAC6 in cortex. Briefly, cerebral cortex was homogenized in RIPA buffer supplemented with 1 μM microstatin, 1 μM MG115, 40 μM Leupeptin, 100 μM ABSF, and 2 mM sodium orthovanadate, separated by 7.5–15% gradient SDS-PAGE and electrophoretically transferred to 0.45 μm poly-vinylidene difluoride membranes (Millipore). Membranes were blocked for 1 h with ECL Prime Blocking Reagent (Amersham, Piscataway, NJ) prior to immunoblotting, visualization, and densitometry as described above.

The subject of series [5] is tubulin acetylation in mouse primary neural cultures. Description: Tubulin acetylation in mouse primary neural culture (ELISA). Format: cell-based. The following applies: 24 h. The procedure:
as §1, §2
Acetylated α-tubulin and total tubulin levels were measured by sandwich ELISA. Ninety six-well plates (Microlite2+, Thermo) were coated with α-tubulin capture antibody (1:100) by overnight incubation at 4 °C, washed 4 times with PBS'T, treated with blocking buffer (1% bovine serum albumin in PBS'T) at 37 °C for 2 h, and washed another 4 times with PBS’T. Cell or tissues lysate was added to the wells and plates were incubated at 37 °C for 2 h. Plates were then washed 4 times with PBST, incubated with a detection antibody for acetylated tubulin or total α-tubulin diluted in blocking buffer at 37℃ for 1 h, rewashed 4 more times with PBST, incubated with a mouse secondary antibody conjugated to horseradish peroxidase (HRP) for 30 min, wash 4 times again with PBST, and then incubated with chemiluminescent substrate (SuperSignal).
(In general: In an ELISA, binding on a coated surface is turned into a signal by an enzyme label.)

A value given as a limit tells only on which side of the number the result lay.

`O=C1c2cc(-c3nnc(C(F)F)o3)cnc2CN1[C@@H]1CCCC[C@H]1NC(=O)C(F)(F)C(F)(F)F` [T-518, N-[(1R,2R)-2-{3-[5-(difluoromethyl)-1,3,4-oxadiazol-2-yl]-5-oxo-5H,6H,7H-pyrrolo[3,4-b]pyridin-6-yl}cyclohexyl]-2,2,3,3,3-pentafluoropropanamide]: the “novel object recognition deficit (preference ratio)” value in series [1] was “dose-dependently ameliorated”. The “inhibition of HDAC1‒5, 7‒9, and 11 in HDAC panel” value in series [2] is “does not inhibit”. Further, in series [3], the “RAB-soluble and RIPA-soluble tau fractions in hippocampus” value is “without affecting”; the “accumulation of tau in the FA fraction (RIPA-insoluble tau) in hippocampus” value was “significantly decreased”. Moreover, the “effect on Histone H3 acetylation” value in series [4] is “neither T-518 nor Tubastatin A at 3 and 30 μM demonstrates this activity”. In addition, the “effect on tubulin acetylation” value in series [5] (DIV6 mouse primary neural culture, 0.1–10 μM, ELISA) is “significantly and concentration-dependently elevates tubulin acetylation”. Further, in series [5] (mouse neurons), the “concentration at which elevation of tubulin acetylation is statistically significant” value is ≥ 0.1 µM.
